Here are results for 1 compound from patent US20090030037A1, “Sustained Release Formulation and Dosing Schedules of Leukotriene Synthesis Inhibitor for Human Therapy” (deCODE Genetics ehf., priority 2005, published 2009).

Entries after “also recorded” stand apart in the source; their conditions may differ.

Data set [1] can be described thus: Effect of high fat meal on DG-031 pharmacokinetics. It is filed as in vivo, human. The settings on record: administration with a high fat meal. As to the method:
In the context of treatment of a single individual, a steady state concentration may be expected to fluctuate from day-to-day with variations in the individual's diet, level activity, state of health, co-administration of other medications, and the like. DG-031 is preferably administered with food to improve adsorption. […] Alternatively, DG-031 is administered in the absence of food. The decision whether or not to administer with food may be based on the Cmax and Cmin observed following administration of a novel formulation where the Cmax and Cmin fall within the desired range. […] In this context, the steady state concentration for an individual refers to an average concentration taken at multiple time points, to adjust for such fluctuation.

A further data set concerns LDL cholesterol. Description: Study DG-031-201: LDL cholesterol. It is filed as in vivo, human. The settings on record: highest dose of DG-031. On the procedure:
(§1) Patients who met the study eligibility criteria were enrolled and randomized into 3 different dose-level groups: (1) 64 patients on 250 mg/day therapy with DG-031 (250 mg q.d.), vs placebo; (2) 64 patients on 500 mg/day therapy with DG-031 (250 mg b.i.d.) vs placebo; and (3) 63 patients on 750 mg/day therapy with DG-031 (250 mg t.i.d.) vs placebo. […] All patients received 3 tablets per day. Treatment periods, 4 weeks in duration each, were separated by a 2-week washout period. The placebo tablets were identical in shape, color, form and taste to the active tablets except that they contained no active drug ingredients. Treatment with DG-031 or placebo was in addition to the subject's standard care, including all medications and treatment plan as prescribed by the subject's cardiologist prior to enrolment. A total of 191 subjects were enrolled, with 172 completing all 8 visits or 8 patients short of the target of 180 patients.
(§2) All data were analyzed according to a pre-established statistical analysis plan (SAP) and by intention-to-treat (ITT). Each arm of the study, as well as pooled sets (combining dose levels), was considered for the primary analysis. […] The difference between DG-031 and placebo treatment was the primary outcome, assessed separately for each of the biomarkers. […]

Data set [2] is described as follows: Study DG-031-204: adverse events. The data set is classed as in vivo. Particulars: for SAE Description: single patients. As to the method:
An additional single site, open label study was carried out to obtain biomarker and safety data on additional DG-031 doses (i.e., 1000 mg and 1500 mg). This study examined the safety, tolerability and dose-related effects of DG-031 on inflammatory biomarkers including: LTB4, hsCRP, and MPO. A total of 119 patients with a prior history of CAD and MI were randomized to receive either 1000 mg DG-031 (500 mg BID) or 1500 mg DG-031 (500 mg TID) daily for 4-6 weeks. Treatment with DG-031 in addition to the subject's standard care, medication, and treatment, was prescribed by the patient's cardiologist. A majority of the subjects received statin therapy before, during and after the study. Follow-up assessments were performed 2 weeks after the end of study drug administration.
A total of 5 patients reported 8 serious adverse events (SAE). One death was reported during the trial. All SAE's were consistent with underlying CAD disorders (see Table 16). A total of 88 of 119 patients reported 203 adverse events. The most commonly reported adverse events (and number of cases reported) included: cold (27), headache (13), constipation/diarrhea (6/8), and vertigo (5).

The subject of another data set is White blood cell count. Description: Study DG-031-201: white blood cell count. The data set is classed as in vivo, human. The settings on record: difference visit 2 to 5; 500 and 750 mg/day vs placebo. On the procedure:
as §1, §2

[3] abbreviates: 119 patients, 500 mg BID or TID, 4-6 weeks.

Turning to `O=C(O)[C@@H](c1ccc(OCc2ccc3ccccc3n2)cc1)C1CCCC1` [DG-031, (R)-(+)-alpha-cyclopentyl-4-(2-quinolinylmethoxy)-Benzeneacetic acid], the half-life entry in data set [1] is given as “shorter”. Further, in the data set on LDL cholesterol, the “Increase in LDL cholesterol” value worked out at 8%. The “SAE Description” value in data set [2] (1000 mg treatment) is recorded as “Cardiac arrest,; also recorded: Subarachnoid hemorrhage; also recorded: Angiography,; also recorded: Repair of Carotid artery; also recorded: Myocardial infarction; also recorded: Unstable angina; also recorded: Myocardial infarction,”. Besides, the “SAE Description” value in data set [2] (1500 mg treatment) was “Congestive heart failure”. In data set [2] (119 patients), this compound yielded an Adverse events reported of 203, a Cases of cold of 27, a Cases of constipation of 6 and a Cases of diarrhea of 8. In data set [2] (119 patients), the Cases of headache was found to be 13 and the Cases of vertigo turned out to be 5. In addition, in data set [2] (119 patients, 500 mg BID or TID), the “Deaths reported during the trial” value is recorded as “One”. Also, in data set [2] (setting [3]), the “Patients reporting serious adverse events” value was found to be 5 and the “Serious adverse events (SAE) reported” value was 8. The “Patients reporting adverse events” value in data set [2] (of 119 patients) is 88. The “Carry-over effect, White blood cell count” value in the data set with White blood cell count is −0.01.
